In patent publication US8802597B2, “Herbicidal pyrimidines” (E I du Pont de Nemours and Company, priority 2003, dated 2014):

Tests used:
Test in all cases: Test C pre/postemergence
Assay type in all cases: in vivo
[1] = test system: Surinam grass (Brachiaria decumbens); details: for Surinam Grass plant response rating: scale 0 to 100 (0 no effect, 100 complete control)
How it was run: (§1)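 Percent control is a visual rating (0 none, 100 complete) taken against untreated plants after 12 to 14 days of greenhouse growth. Applications were made preemergence to seeded pots and postemergence to plants at the 1- to 4-leaf stage, in a non-phytotoxic surfactant-containing solvent.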

[2] = test system: cocklebur (Xanthium strumarium); details: for Cocklebur plant response rating: scale 0 to 100 (0 no effect, 100 complete control)
How it was run: as §1

[3] = test system: common (oilseed) sunflower (Helianthus annuus); details: Preemergence
How it was run: as §1

[4] = test system: corn (Zea mays); details: for Corn plant response rating: scale 0 to 100 (0 no effect, 100 complete control)
How it was run: as §1

[5] = test system: crabgrass (Digitaria sanguinalis); details: for Crabgrass plant response rating: scale 0 to 100 (0 no effect, 100 complete control)
How it was run: as §1

[6] = test system: eastern black nightshade (Solanum ptycanthum); details: Preemergence
How it was run: as §1

[7] = test system: giant foxtail (Setaria faberii); details: for Foxtail, Giant plant response rating: scale 0 to 100 (0 no effect, 100 complete control)
How it was run: as §1

[8] = test system: johnsongrass (Sorghum halepense); details: for Johnsongrass plant response rating: scale 0 to 100 (0 no effect, 100 complete control)
How it was run: as §1

[9] = test system: kochia (Kochia scoparia); details: for Kochia plant response rating: scale 0 to 100 (0 no effect, 100 complete control)
How it was run: as §1

[10] = test system: lambsquarters (Chenopodium album); details: for Lambsquarters plant response rating: scale 0 to 100 (0 no effect, 100 complete control); for Plant response rating, Lambsquarters: scale 0 to 100
How it was run: as §1

[11] = test system: morningglory (Ipomoea coccinea); details: for Morningglory plant response rating: scale 0 to 100 (0 no effect, 100 complete control)
How it was run: as §1

[12] = test system: soybean (Glycine max); details: for Soybean plant response rating: scale 0 to 100 (0 no effect, 100 complete control)
How it was run: as §1

[13] = Postemergence, 250 g ai/ha, scale 0 to 100
[14] = Postemergence, 500 g ai/ha, scale 0 to 100
[15] = Preemergence, 62 g ai/ha, scale 0 to 100, 0 no effect, 100 complete control
[16] = Preemergence, 125 g ai/ha, scale 0 to 100
[17] = Preemergence, 250 g ai/ha, scale 0 to 100
[18] = Preemergence, 500 g ai/ha, scale 0 to 100
[19] = 62 g ai/ha, scale 0 to 100, 0 no effect, 100 complete control

## Nc1nc(C2CC2)nc(C=NO)c1Br [Compound 27]
[1]; Postemergence, 62 g ai/ha
  Surinam Grass plant response rating: 0
[1]; Postemergence, 125 g ai/ha
  Surinam Grass plant response rating: 0
[1]; [13]
  Plant response rating, Surinam Grass: 0
[1]; [14]
  Plant response rating, Surinam Grass: 0
[1]; [15]
  Plant response rating, Surinam Grass: 0
[1]; [16]
  Plant response rating, Surinam Grass: 0
[1]; [17]
  Plant response rating, Surinam Grass: 20
[1]; [18]
  Plant response rating, Surinam Grass: 30
[2]; Postemergence, 62 g ai/ha
  Cocklebur plant response rating: 20
[2]; Postemergence, 125 g ai/ha
  Cocklebur plant response rating: 25
[2]; [13]
  Plant response rating, Cocklebur: 25
[2]; [14]
  Plant response rating, Cocklebur: 25
[2]; [15]
  Plant response rating, Cocklebur: 0
[2]; [16]
  Plant response rating, Cocklebur: 50
[2]; [17]
  Plant response rating, Cocklebur: 70
[2]; [18]
  Plant response rating, Cocklebur: 95
[3]; [19]
  Plant response rating, Sunflower: 0
[3]; 125 g ai/ha, scale 0 to 100
  Plant response rating, Sunflower: 20
[3]; 250 g ai/ha, scale 0 to 100
  Plant response rating, Sunflower: 90
[3]; 500 g ai/ha, scale 0 to 100
  Plant response rating, Sunflower: 95
[4]; Postemergence, 62 g ai/ha
  Corn plant response rating: 0
[4]; Postemergence, 125 g ai/ha
  Corn plant response rating: 0
[4]; [13]
  Plant response rating, Corn: 0
[4]; [14]
  Plant response rating, Corn: 0
[4]; [15]
  Plant response rating, Corn: 0
[4]; [16]
  Plant response rating, Corn: 10
[4]; [17]
  Plant response rating, Corn: 15
[4]; [18]
  Plant response rating, Corn: 25
[5]; Postemergence, 62 g ai/ha
  Crabgrass plant response rating: 0
[5]; Postemergence, 125 g ai/ha
  Crabgrass plant response rating: 0
[5]; [13]
  Plant response rating, Crabgrass: 5
[5]; [14]
  Plant response rating, Crabgrass: 30
[5]; [15]
  Plant response rating, Crabgrass: 0
[5]; [16]
  Plant response rating, Crabgrass: 0
[5]; [17]
  Plant response rating, Crabgrass: 0
[5]; [18]
  Plant response rating, Crabgrass: 85
[6]; [19]
  Plant response rating, Nightshade: 0
[6]; 125 g ai/ha, scale 0 to 100
  Plant response rating, Nightshade: 70
[6]; 250 g ai/ha, scale 0 to 100
  Plant response rating, Nightshade: 100
[6]; 500 g ai/ha, scale 0 to 100
  Plant response rating, Nightshade: 100
[7]; Postemergence, 62 g ai/ha
  Foxtail, Giant plant response rating: 0
[7]; Postemergence, 125 g ai/ha
  Foxtail, Giant plant response rating: 0
[7]; [13]
  Plant response rating, Foxtail, Giant: 0
[7]; [14]
  Plant response rating, Foxtail, Giant: 0
[7]; [15]
  Plant response rating, Foxtail, Giant: 0
[7]; [16]
  Plant response rating, Foxtail, Giant: 0
[7]; [17]
  Plant response rating, Foxtail, Giant: 0
[7]; [18]
  Plant response rating, Foxtail, Giant: 20
[8]; Postemergence, 62 g ai/ha
  Johnsongrass plant response rating: 0
[8]; Postemergence, 125 g ai/ha
  Johnsongrass plant response rating: 0
[8]; [13]
  Plant response rating, Johnsongrass: 0
[8]; [14]
  Plant response rating, Johnsongrass: 0
[8]; [15]
  Plant response rating, Johnsongrass: 0
[8]; [16]
  Plant response rating, Johnsongrass: 20
[8]; [17]
  Plant response rating, Johnsongrass: 45
[8]; [18]
  Plant response rating, Johnsongrass: 65
[9]; Postemergence, 62 g ai/ha
  Kochia plant response rating: 0
[9]; Postemergence, 125 g ai/ha
  Kochia plant response rating: 20
[9]; [13]
  Plant response rating, Kochia: 50
[9]; [14]
  Plant response rating, Kochia: 60
[9]; [15]
  Plant response rating, Kochia: 0
[9]; [16]
  Plant response rating, Kochia: 0
[9]; [17]
  Plant response rating, Kochia: 30
[9]; [18]
  Plant response rating, Kochia: 45
[10]; Postemergence, 62 g ai/ha
  Lambsquarters plant response rating: 20
[10]; Postemergence, 125 g ai/ha
  Lambsquarters plant response rating: 20
[10]; Postemergence, 250 g ai/ha
  Plant response rating, Lambsquarters: 25
[10]; Postemergence, 500 g ai/ha
  Plant response rating, Lambsquarters: 50
[10]; Preemergence, 125 g ai/ha
  Plant response rating, Lambsquarters: 40
[10]; Preemergence, 250 g ai/ha
  Plant response rating, Lambsquarters: 90
[10]; Preemergence, 500 g ai/ha
  Plant response rating, Lambsquarters: 100
[11]; Postemergence, 62 g ai/ha
  Morningglory plant response rating: 20
[11]; Postemergence, 125 g ai/ha
  Morningglory plant response rating: 85
[11]; [13]
  Plant response rating, Morningglory: 85
[11]; [14]
  Plant response rating, Morningglory: 85
[11]; [15]
  Plant response rating, Morningglory: 0
[11]; [16]
  Plant response rating, Morningglory: 70
[11]; [17]
  Plant response rating, Morningglory: 95
[11]; [18]
  Plant response rating, Morningglory: 100
[12]; Postemergence, 62 g ai/ha
  Soybean plant response rating: 30
[12]; Postemergence, 125 g ai/ha
  Soybean plant response rating: 45
[12]; [13]
  Plant response rating, Soybean: 85
[12]; [14]
  Plant response rating, Soybean: 95
[12]; [15]
  Plant response rating, Soybean: 0
[12]; [16]
  Plant response rating, Soybean: 0
[12]; [17]
  Plant response rating, Soybean: 20
[12]; [18]
  Plant response rating, Soybean: 75
